In paper PMC6770006, “Novel Heat Shock Protein 90 Inhibitors Suppress P-Glycoprotein Activity and Overcome Multidrug Resistance in Cancer Cells” (International Journal of Molecular Sciences, 2019):

Columns and labels:
[1] = test system: DLD1-TxR cells; test: Combined treatment of compound 5 with PTX, MTT, median effect analysis; assay type: cell-based, human; details: PTX resistance
Procedure: (§1) The combined effects of compound 5 with DOX as well as with PTX were studied in NCI-H460/R and DLD1-TxR cells, respectively, by MTT assay. In simultaneous treatments that lasted 72 h in NCI-H460/R cells, three concentrations of compound 5 (2.5, 5, and 10 µM) were combined with increasing concentrations of DOX (250, 500 and 1000 nM), while in DLD1-TxR cells different concentrations of compound 5 (1, 2.5, and 5 µM) were combined with increasing concentrations of PTX (100, 250 and 500 nM). The nature of the interaction between Hsp90 inhibitors and DOX/PTX was analyzed with CalcuSyn software v1.1 (Biosoft, Cambridge, UK) that uses the Combination Index method based on the multiple drug effect equation [54]. Three data points were used for each single drug in each experiment. The non-constant ratio combination was chosen to assess the effect of both drugs in combination. The results are presented in a fraction-affected CI graph. Values of CI < 1 point to a pronounced additive effect or synergism (the smaller value, the greater the degree of synergy). A value of CI = 1 indicates an additive effect, while values of CI > 1 point to an antagonistic effect.

[2] = test system: NCI-H460/R cells; test: Combined treatment of compound 5 with DOX, MTT, median effect analysis; assay type: cell-based, human; details: for Relative Reversal: DOX resistance; for IC50: Homo sapiens, NCI-H460, 72 h
Procedure: as §1

O=C1c2ccccc2C(=O)c2c(-c3ccccc3O)noc21 [Compound 5]
Relative Reversal ([1]; 1 µM compound 5): 1.80
Relative Reversal ([1]; 2.5 µM compound 5): 2.60
Relative Reversal ([1]; 5 µM compound 5): 5.27
Relative Reversal ([2]; 2.5 µM compound 5): 1.31
Relative Reversal ([2]; 5 µM compound 5): 2.62
Relative Reversal ([2]; 10 µM compound 5): 5.28
IC50 ([2]; DOX + 2.5 µM compound 5, 72 h): 1730 ± 30.9 nM
IC50 ([2]; DOX + 5 µM compound 5, 72 h): 864 ± 25.6 nM
IC50 ([2]; DOX + 10 µM compound 5, 72 h): 429 ± 13.3 nM
